According to publication PMC4848466, “Insights into the activation mechanism of class I HDAC complexes by inositol phosphates” (Nature Communications, 2016):
“Also recorded” adds a separate entry of the source.

How the values were obtained:
HDAC3:SMRT complex = molecular target: T1, HDAC3:SMRT complex (Homo sapiens, UniProt O15379+Q9Y618); assay: Activation of HDAC3:SMRT deacetylase activity by inositol phosphates (BOC-Lys-AMC assay); type: biochemical; conditions: for Kd / HDAC3 activation relative to maximal Ins(1,4,5,6)P4-stimulated activity: BOC-Lys-AMC assay; for Kd: one-site binding fit of HDAC activity vs inositol phosphate concentration, read-out: Kdapp (apparent Kd from activation titration); for HDAC3 activation relative to maximal Ins(1,4,5,6)P4-stimulated activity: titration / maximal activation; for HDAC activity as percentage of maximal Ins(1,4,5,6)P4 activity: compound tested at 200 μM
T1 construct: Full-length HDAC3, and residues 350–480 of SMRT were cloned into pcDNA3 vectors; residues 350–480 of SMRT were cloned into pcDNA3 vectors; FLAG tag with TEV protease cleavage site (cleaved yes); made in house; host or cells: HEK293F cells (co-transfection, pcDNA3)
T1 sequence (O15379 whole entry, the tested form may be a part): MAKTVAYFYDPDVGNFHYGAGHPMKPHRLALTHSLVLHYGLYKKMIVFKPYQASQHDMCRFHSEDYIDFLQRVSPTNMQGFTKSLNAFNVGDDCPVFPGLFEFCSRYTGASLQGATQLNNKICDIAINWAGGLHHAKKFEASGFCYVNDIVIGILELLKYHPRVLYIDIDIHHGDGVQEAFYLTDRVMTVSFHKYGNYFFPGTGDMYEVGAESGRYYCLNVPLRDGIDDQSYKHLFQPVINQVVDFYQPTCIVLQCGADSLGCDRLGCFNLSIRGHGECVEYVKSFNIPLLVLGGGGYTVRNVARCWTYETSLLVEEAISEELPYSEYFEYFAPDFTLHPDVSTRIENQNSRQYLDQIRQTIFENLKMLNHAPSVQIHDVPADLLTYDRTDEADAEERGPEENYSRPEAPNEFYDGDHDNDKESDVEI
T1 sequence (Q9Y618 350-480): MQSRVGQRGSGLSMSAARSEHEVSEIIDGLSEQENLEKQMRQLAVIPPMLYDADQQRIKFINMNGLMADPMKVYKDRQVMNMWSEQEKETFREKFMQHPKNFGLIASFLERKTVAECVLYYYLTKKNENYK
Description: To understand the stereochemical basis underlying the activation of HDAC3 by inositol phosphates we investigated the ability of a range of inositol phosphates and derivatives to enhance the activity of HDAC3 in deacetylase assays. To achieve this we used an assay based on the complex of HDAC3 with an extended SMRT construct which is stable in the absence of inositol phosphate.
(§1) HDAC activity of the protein complex was measured using an HDAC assay with a BOC-Lys-AMC substrate. 50 nM HDAC3:SMRT or 50 nM HDAC1:MTA1 was incubated with 100 μM BOC-Lys-AMC substrate in a final volume of 50 μl buffer A (50 mM Tris pH 7.5, 50 mM NaCl, 5% Glycerol), in a black 96-well plate for 30 min at 37 °C.
(§2) To test the ability of inositol phosphates and derivatives to activate the complex, 50 nM HDAC3:SMRT (which had been stripped of its endogenous co-purified inositol phosphate) or 50 nM HDAC1:MTA1 was incubated with inositol phosphate or analogue for 30 min at 37 °C before the HDAC activity was measured. All measurements were performed in triplicate and data analysed using GraphPad Prism (version 6.0, GraphPad Software, Inc).

HDAC1:MTA1 complex [1] = molecular target: HDAC1:MTA1 complex (UniProt Q13547)
HDAC1:MTA1 complex (UniProt Q13547), sequence (Q13547 whole entry, the tested form may be a part, one chain of several): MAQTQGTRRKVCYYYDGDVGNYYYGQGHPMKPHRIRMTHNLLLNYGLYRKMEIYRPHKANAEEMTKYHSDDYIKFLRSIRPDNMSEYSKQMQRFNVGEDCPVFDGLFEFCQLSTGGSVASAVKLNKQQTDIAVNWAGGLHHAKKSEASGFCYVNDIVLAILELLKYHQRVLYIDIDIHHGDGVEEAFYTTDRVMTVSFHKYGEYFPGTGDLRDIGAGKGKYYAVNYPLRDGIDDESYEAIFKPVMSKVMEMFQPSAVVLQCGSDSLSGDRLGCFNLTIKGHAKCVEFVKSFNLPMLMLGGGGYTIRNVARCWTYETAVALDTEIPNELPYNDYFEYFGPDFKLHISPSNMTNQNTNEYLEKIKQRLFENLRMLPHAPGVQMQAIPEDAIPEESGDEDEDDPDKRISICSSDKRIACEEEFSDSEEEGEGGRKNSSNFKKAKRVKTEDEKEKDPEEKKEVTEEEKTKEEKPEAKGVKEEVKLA
HDAC3:SMRT = HDAC3:SMRT (Homo sapiens, UniProt O15379+Q9Y618); assay: Fluorescence anisotropy displacement of 2-FAM-Ins(1,3,4,5,6)P5; type: binding; set-up: Full-length HDAC3, and residues 350–480 of SMRT were cloned into pcDNA3 vectors; residues 350–480 of SMRT were cloned into pcDNA3 vectors; FLAG tag with TEV protease cleavage site (cleaved yes); made in house; host or cells: HEK293F cells (co-transfection, pcDNA3); conditions: fluorescence anisotropy competition
HDAC3:SMRT, sequence (O15379 whole entry, the tested form may be a part): as the sequence (O15379 whole entry, the tested form may be a part) above
HDAC3:SMRT, sequence (Q9Y618 350-480): as the sequence (Q9Y618 350-480) above
Description: The concentration of protein was determined as that which gave 100% bound in the protein titration experiments. The data were analysed and IC50 values calculated using GraphPad Prism (version 6.0).

HDAC1:MTA1 complex [2] = molecular target: T2, HDAC1:MTA1 complex (Homo sapiens, UniProt Q13330+Q13547); assay: Activation of HDAC1:MTA1 deacetylase activity by inositol phosphates (BOC-Lys-AMC assay); type: biochemical
T2 construct: Full-length HDAC1 and residues 162–354 of MTA1 were cloned into pcDNA3 vectors; residues 162–354 of MTA1 were cloned into pcDNA3 vectors; FLAG tag with TEV protease cleavage site (cleaved yes); made in house; host or cells: HEK293F cells (co-transfection, pcDNA3)
T2 sequence (Q13547 whole entry, one chain of several, the tested form may be a part): as the sequence (Q13547 whole entry, the tested form may be a part, one chain of several) above
Description: as §1, §2

HDAC1 = molecular target: T3, HDAC1 (UniProt Q13547 1-482); assay: crystal structure; HDAC1:MTA1 (co-expressed and co-purified, 5 mg/ml) co-crystallised with H4K16Hx at a 1:2 molar ratio; sitting drop, 20 °C, 0.1 M HEPES pH 7.5, 2 M ammonium sulfate, 5% PEG400; crystals frozen with 225 mM InsP6; 3.3 Å; conditions: both partners purified
T3 construct: Histone deacetylase 1 (HDAC1), full length, cloned into pcDNA3; Only handled as the co-expressed, co-purified complex with MTA1 162-354; also called histone deacetylase 1; source: HEK293F, co-transfected with the MTA1 construct, purified as the complex (FLAG resin, TEV elution, gel filtration)
T3 sequence (Q13547 whole entry): as the sequence (Q13547 whole entry, the tested form may be a part, one chain of several) above

O=P(O)(O)O[C@H]1[C@H](OP(=O)(O)O)[C@@H](OP(=O)(O)O)[C@@H](O)[C@@H](O)[C@@H]1OP(=O)(O)O [Ins(3,4,5,6)P4]
Kd (HDAC3:SMRT complex): 41 µM

H4K16Hx (histone H4 residues 12-18 with hydroxamic acid functionality at K16) (from UniProt P62805 13-19) (peptide)
inhibition of the deacetylase activity of HDAC1:MTA1 (IC50) (HDAC1:MTA1 complex [1]): 0.336 µM

O=P(O)(O)O[C@H]1[C@H](OP(=O)(O)O)[C@H](O)[C@H](O)[C@@H](O)[C@@H]1OP(=O)(O)O [Ins(1,5,6)P3]
Kd (HDAC3:SMRT complex): 29 µM | HDAC3 activation relative to maximal Ins(1,4,5,6)P4-stimulated activity (HDAC3:SMRT complex): 60%

O=P(O)(O)OC1C(O)C(O)C(O)C(OP(=O)(O)O)C1OP(=O)(O)O (centres unmarked) [Ins(4,5,6)P3]
Kd (HDAC3:SMRT complex): 45 µM | HDAC3 activation relative to maximal Ins(1,4,5,6)P4-stimulated activity (HDAC3:SMRT complex): 85%

Nc1ncnc2c1ncn2[C@@H]1O[C@H](CO)[C@@H](O[C@H]2O[C@H](CO)[C@@H](OP(=O)(O)O)[C@H](OP(=O)(O)O)[C@H]2O)[C@H]1OP(=O)(O)O [adenophostin A]
HDAC activity as percentage of maximal Ins(1,4,5,6)P4 activity (HDAC3:SMRT complex): no activity; also recorded: neither activates HDAC3; also recorded: completely inert | IC50 displacement of 2-FAM-Ins(1,3,4,5,6)P5 (HDAC3:SMRT): nor competes for inositol phosphate binding

O=P(O)(O)OC1[C@H](O)[C@H](OP(=O)(O)O)C(OP(=O)(O)O)[C@H](OP(=O)(O)O)[C@H]1O (some centres unmarked) [Ins(1,3,4,5)P4]
Kd (HDAC3:SMRT complex): 13 µM | HDAC3 activation relative to maximal Ins(1,4,5,6)P4-stimulated activity (HDAC3:SMRT complex): greater than 75%

O=C(CP(=O)(O)O)O[C@@H]1[C@@H](OP(=O)(O)O)[C@H](OP(=O)(O)O)[C@H](O)[C@H](OP(=O)(O)O)[C@H]1OP(=O)(O)O [2-OH-5-PA-InsP4]
HDAC activity as percentage of maximal Ins(1,4,5,6)P4 activity (HDAC3:SMRT complex): completely inert

O=P(O)(O)OC1[C@@H](OP(=O)(O)O)[C@H](OP(=O)(O)O)C(O)[C@H](OP(=O)(O)O)[C@H]1OP(=O)(O)O (some centres unmarked)
Kd (HDAC3:SMRT complex): 5 µM | HDAC3 activation relative to maximal Ins(1,4,5,6)P4-stimulated activity (HDAC3:SMRT complex): same degree as Ins(1,4,5,6)P4 | increase in apparent affinity compared with Ins(1,4,5,6)P4 (HDAC3:SMRT complex; ratio of apparent Kd values): twofold | activation of HDAC1:MTA1 complex (HDAC1:MTA1 complex [2]): can be activated | Kd (HDAC1:MTA1 complex [2]; read-out: Kdapp (apparent Kd from activation titration)): 2.6 µM

B1: MTA1 residues 162-354 (domain or fragment, UniProt Q13330 162-354, looked up)
chain: ADKGEIRVGNRYQADITDLLKEGEEDGRDQSRLETQVWEAHNPLTDKQIDQFLVVARSVGTFARALDCSSSVRQPSLHMSAAAASRDITLFHAMDTLHKNIYDISKAISALVPQGGPVLCRDEMEEWSASEANLFEEALEKYGKDFTDIQQDFLPWKSLTSIIEYYYMWKTTDRYVQQKRLKAAEAESKLKQV
notes: MTA1, residues 162-354, cloned into pcDNA3 with a FLAG tag and TEV protease cleavage site; The complex was eluted from the FLAG resin with TEV protease; source: HEK293F, co-transfected with HDAC1, purified as the complex (FLAG resin, TEV elution, gel filtration)
binding result (HDAC1): binds
